Assay results taken from paper PMC13210772, “Dual FLT3/MAPK14 Proteolysis-Targeting Chimera (PROTAC) Induces Potent Acute Myeloid Leukemia Cell Death” (Pharmaceuticals, 2026).
≈ marks a conversion by molar mass, not a printed value.

How the values were obtained:
[1] = Non-enzymatic stability under cellular assay conditions (HPLC); type: physicochemical; settings: compound remaining, assay medium DMEM, 37 °C
Description: An important aspect in the development of PROTACs is testing chemical stability. On the one hand, we tested all PROTACs produced for their stability under cellular assay conditions. For this purpose, 10 µM solutions of the PROTACs and reference inhibitor were incubated for 72 h at 37 °C with the assay medium DMEM. The remaining amount of the compounds was determined by HPLC after 6, 12, 24, 48 and 72 h. The results of the stability studies are shown in Table S2 (Supplementary Information).
The developed compounds were diluted in the assay media consisting of a mixture of DMEM (50%), DMSO (10%) and acetonitrile (40%) at pH 7.4 and incubated at 37 °C for 72 h. The quantity of the compounds was measured after 6, 12, 24, 48, and 72 h by HPLC using an XTerra RP18 column ([…], 3.9 mm × 100 mm) from the manufacturer Waters (Milford, MA, USA) and two LC-10AD pumps, an SPD-M10AVP PDA detector, and an SIL-HT autosampler, all from the manufacturer Shimadzu (Kyoto, Japan).

[2] = Plasma stability; type: in vitro ADME; settings: for remaining at 0 h, 10 µM / remaining at 10 min, 10 µM / remaining at 0.5 h, 10 µM / remaining at 1 h, 10 µM / remaining at 2 h, 10 µM / remaining at 6 h, 10 µM: pooled human plasma, 37 °C; for remaining at 0 h, 10 µM: 0 min, read-out: 0 min—Compound Remaining %; for remaining at 10 min, 10 µM: read-out: 10 min—Compound Remaining %; for remaining at 0.5 h, 10 µM: 30 min, read-out: 30 min—Compound Remaining %; for remaining at 1 h, 10 µM: 60 min, read-out: 60 min—Compound Remaining %; for remaining at 2 h, 10 µM: 120 min, read-out: 120 min—Compound Remaining %; for remaining at 6 h, 10 µM: 360 min, read-out: 360 min—Compound Remaining %; for plasma stability: human plasma, 6 h
Description: Another aspect we tested for selected PROTACs, and the reference inhibitor is the stability in human plasma. PROTACs MA190 and MA191 and their parent inhibitor MA68 (10 μM, final DMSO concentration 1%) were incubated with 100 μL pooled human plasma at 37 °C. The remaining amount of the incubated compound was tested for 6 h using a HPLC method. […] The further detailed biological characterization of MA191 and the successful in vivo testing can be found in a study submitted in parallel.
To determine plasma stability, 10 μM of the given compound was incubated with 100 μL human pooled plasma for 5, 10, 30, 60, 120 and 360 min at 37 °C. The reactions were stopped by adding 300 μL of acetonitrile with subsequent plasma proteins sedimentation. The samples were subjected to ultra-centrifugation (5 min, 10,000 RPM/g) using modified PES 30K low protein binding centrifugal filter. The filtrate was then analyzed using HPLC to determine the available concentration of the compounds and also to determine and quantify potential degradation products. As HPLC system a LiChrosorb® RP-18 (5 μm) 100–4.6 column from the manufacturer Merck, two LC-10AD pumps, a SPD-M10A VP PDA detector, and a SIL HT auto-sampler were used (all from the manufacturer Shimadzu, Kyoto, Japan). As mobile phase a gradient with […] composed of methanol/water/trifluoroacetic acid at a flow rate of 1 mL/min. UV absorbance was measured at 254 nm was used.

[3] = in vitro; settings: human, HEK293 cells
[4] = Nephelometric solubility; type: physicochemical; settings: aqueous buffer, kinetic from dmso stock; PBS buffer, nephelometry
Description: In addition to the degradation and determination of the effects on AML cancer cells, we also determined some physicochemical parameters to assess whether the compounds are suitable for further in vivo studies. Nephelometric measurements were performed to determine the water solubility of some compounds. […] The nephelometric technique has been previously described as a high-throughput method for the solubility determination of compounds in the solvent of interest. This technique measures the intensity of scattered light when visible light passes through a suspension of the tested compound. Relative turbidity is an indication of the insolubility of compounds.
First, equidistant and logarithmic pre-dilutions were prepared in a 96-well plate with round bottoms, using 25 mM stock solutions of compounds MA68 and MA191 in DMSO. Then, 5 μL of each pre-dilution was added to 245 μL of PBS buffer in a 96-well plate with straight bottoms. Quadruplets were prepared for the blank (DMSO + PBS), and final concentrations (one plate per compound) were tested. The final concentrations measured started from 500 μM to 0.78125 μM. A NEPHELOstarplus (BMG LABTECH GmbH, Ortenberg, Germany) was used to measure the solubility, and omega-data analysis software (version 3.42 R5) was used to analyze the results.

[5] = biological target: T1, CAMK1G (Homo sapiens, UniProt Q96NX5); assay: NanoBRET CELLinib128; type: binding; settings: 100% no effect, 0% complete tracer displacement, read-out: Tracer bound
T1 construct: Full-length kinase ORF (Promega, Madison, WI, USA) cloned in frame with a NanoLuc-vector was transfected into HEK293T cells; host or cells: HEK293T
T1 sequence (Q96NX5 whole entry): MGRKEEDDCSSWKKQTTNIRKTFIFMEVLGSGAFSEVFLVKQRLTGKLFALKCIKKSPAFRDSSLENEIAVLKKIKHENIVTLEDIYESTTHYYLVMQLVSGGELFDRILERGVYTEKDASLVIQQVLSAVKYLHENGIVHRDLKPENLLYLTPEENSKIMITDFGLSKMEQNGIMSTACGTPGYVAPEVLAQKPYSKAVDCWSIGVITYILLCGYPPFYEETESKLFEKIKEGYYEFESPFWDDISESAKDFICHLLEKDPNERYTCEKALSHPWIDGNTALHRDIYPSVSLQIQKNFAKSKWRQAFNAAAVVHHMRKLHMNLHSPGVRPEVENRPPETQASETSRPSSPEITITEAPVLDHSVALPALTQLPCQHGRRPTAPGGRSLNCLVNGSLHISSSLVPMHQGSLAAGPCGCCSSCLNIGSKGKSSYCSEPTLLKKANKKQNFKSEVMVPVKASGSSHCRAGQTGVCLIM

[6] = biological target: T2, EPHB3 (Homo sapiens, UniProt P54753); assay: NanoBRET CELLinib128; type: binding; settings: 100% no effect, 0% complete tracer displacement, read-out: Tracer bound
T2 construct: Full-length kinase ORF (Promega, Madison, WI, USA) cloned in frame with a NanoLuc-vector was transfected into HEK293T cells; host or cells: HEK293T
T2 sequence (P54753 34-998): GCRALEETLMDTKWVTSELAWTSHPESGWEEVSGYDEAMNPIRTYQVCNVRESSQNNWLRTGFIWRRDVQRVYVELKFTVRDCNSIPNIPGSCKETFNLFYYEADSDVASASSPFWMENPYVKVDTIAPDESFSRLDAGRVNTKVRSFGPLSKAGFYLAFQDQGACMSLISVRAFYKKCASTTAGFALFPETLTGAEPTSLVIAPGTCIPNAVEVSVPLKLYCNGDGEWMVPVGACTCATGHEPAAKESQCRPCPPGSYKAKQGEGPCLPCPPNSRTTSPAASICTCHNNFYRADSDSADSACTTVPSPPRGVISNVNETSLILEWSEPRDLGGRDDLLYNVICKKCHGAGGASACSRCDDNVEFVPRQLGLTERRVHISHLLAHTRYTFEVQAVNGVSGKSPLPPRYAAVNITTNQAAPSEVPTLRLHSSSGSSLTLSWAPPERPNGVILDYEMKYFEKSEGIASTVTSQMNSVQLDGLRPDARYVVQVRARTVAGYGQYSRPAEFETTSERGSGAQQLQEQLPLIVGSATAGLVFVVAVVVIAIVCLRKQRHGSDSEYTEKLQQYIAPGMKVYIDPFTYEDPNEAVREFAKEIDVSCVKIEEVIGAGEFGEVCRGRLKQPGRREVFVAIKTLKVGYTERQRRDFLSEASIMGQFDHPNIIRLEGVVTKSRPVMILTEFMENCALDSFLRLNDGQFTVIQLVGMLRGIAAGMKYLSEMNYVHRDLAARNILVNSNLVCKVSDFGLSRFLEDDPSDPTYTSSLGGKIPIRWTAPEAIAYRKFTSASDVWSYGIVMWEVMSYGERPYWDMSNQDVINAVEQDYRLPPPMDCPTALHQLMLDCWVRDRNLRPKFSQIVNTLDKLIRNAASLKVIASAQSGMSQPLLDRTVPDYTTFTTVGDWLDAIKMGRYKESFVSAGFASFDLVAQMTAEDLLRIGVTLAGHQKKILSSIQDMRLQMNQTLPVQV

[7] = biological target: CAMK1 (Homo sapiens, UniProt Q14012); assay: NanoBRET CELLinib128; settings: read-out: Tracer bound
Sequence of CAMK1 (Q14012 whole entry): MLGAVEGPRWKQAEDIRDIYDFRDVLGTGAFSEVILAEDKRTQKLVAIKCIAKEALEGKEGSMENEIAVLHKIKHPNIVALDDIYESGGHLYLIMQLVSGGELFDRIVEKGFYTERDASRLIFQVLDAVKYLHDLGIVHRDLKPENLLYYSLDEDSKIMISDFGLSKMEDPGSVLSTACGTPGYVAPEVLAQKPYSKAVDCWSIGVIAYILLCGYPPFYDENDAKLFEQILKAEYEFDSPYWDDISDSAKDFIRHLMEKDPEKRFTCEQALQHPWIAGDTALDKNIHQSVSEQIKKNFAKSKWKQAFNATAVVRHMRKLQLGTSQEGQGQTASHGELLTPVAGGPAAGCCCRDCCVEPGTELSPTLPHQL

[8] = biological target: CSF1R (Homo sapiens, UniProt P07333); assay: NanoBRET CELLinib128; settings: read-out: Tracer bound
[9] = biological target: EPHA4 (Homo sapiens, UniProt P54764); assay: NanoBRET CELLinib128; settings: read-out: Tracer bound
[10] = biological target: EPHA8 (Homo sapiens, UniProt P29322); assay: NanoBRET CELLinib128; settings: read-out: Tracer bound
[11] = biological target: EPHB1 (Homo sapiens, UniProt P54762); assay: NanoBRET CELLinib128; settings: read-out: Tracer bound
[12] = biological target: IRAK1 (Homo sapiens, UniProt P51617); assay: NanoBRET CELLinib128; settings: read-out: Tracer bound
[13] = biological target: LTK (Homo sapiens, UniProt P29376); assay: NanoBRET CELLinib128; settings: read-out: Tracer bound
Sequence of LTK (P29376 17-864): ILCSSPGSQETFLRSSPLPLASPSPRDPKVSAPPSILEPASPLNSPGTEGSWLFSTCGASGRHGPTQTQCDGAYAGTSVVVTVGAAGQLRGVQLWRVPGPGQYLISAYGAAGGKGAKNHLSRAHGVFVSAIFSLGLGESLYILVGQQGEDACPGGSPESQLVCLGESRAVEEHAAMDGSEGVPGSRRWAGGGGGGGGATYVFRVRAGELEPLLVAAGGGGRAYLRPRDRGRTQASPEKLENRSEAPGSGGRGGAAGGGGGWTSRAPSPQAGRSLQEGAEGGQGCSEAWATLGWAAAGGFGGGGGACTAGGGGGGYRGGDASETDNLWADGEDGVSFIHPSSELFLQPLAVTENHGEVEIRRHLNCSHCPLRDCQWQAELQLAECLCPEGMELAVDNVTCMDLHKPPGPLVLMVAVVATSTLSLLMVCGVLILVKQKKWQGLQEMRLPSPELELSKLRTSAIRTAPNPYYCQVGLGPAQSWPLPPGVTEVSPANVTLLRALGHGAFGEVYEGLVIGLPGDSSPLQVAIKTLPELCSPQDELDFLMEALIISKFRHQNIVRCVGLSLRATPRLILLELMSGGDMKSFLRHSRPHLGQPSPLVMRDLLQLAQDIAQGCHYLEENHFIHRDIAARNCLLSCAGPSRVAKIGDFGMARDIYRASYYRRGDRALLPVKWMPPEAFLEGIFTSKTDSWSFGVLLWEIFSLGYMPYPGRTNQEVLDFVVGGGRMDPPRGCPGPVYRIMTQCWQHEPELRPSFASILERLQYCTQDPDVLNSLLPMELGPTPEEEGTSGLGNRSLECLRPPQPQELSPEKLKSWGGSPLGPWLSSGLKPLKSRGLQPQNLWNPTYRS

[14] = biological target: MAPK11 (Homo sapiens, UniProt Q15759); assay: NanoBRET CELLinib128; settings: read-out: Tracer bound
Sequence of MAPK11 (Q15759 whole entry): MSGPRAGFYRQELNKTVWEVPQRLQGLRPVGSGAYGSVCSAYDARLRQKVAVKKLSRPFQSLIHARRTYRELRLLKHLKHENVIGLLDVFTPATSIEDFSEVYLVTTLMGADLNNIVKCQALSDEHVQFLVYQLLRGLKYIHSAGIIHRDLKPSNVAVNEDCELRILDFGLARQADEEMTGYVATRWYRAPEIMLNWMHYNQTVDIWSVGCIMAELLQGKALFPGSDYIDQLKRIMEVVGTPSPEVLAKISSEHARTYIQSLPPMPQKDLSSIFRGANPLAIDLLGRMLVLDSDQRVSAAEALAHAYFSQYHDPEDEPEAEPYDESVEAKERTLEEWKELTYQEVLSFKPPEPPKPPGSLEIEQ

[15] = biological target: MAPK14 (Homo sapiens, UniProt Q16539); assay: NanoBRET CELLinib128; settings: 1 µM; 100% no effect, 0% complete tracer displacement
[16] = biological target: RON (Homo sapiens, UniProt Q04912); assay: NanoBRET CELLinib128; settings: read-out: Tracer bound
Sequence of RON (Q04912 25-1400): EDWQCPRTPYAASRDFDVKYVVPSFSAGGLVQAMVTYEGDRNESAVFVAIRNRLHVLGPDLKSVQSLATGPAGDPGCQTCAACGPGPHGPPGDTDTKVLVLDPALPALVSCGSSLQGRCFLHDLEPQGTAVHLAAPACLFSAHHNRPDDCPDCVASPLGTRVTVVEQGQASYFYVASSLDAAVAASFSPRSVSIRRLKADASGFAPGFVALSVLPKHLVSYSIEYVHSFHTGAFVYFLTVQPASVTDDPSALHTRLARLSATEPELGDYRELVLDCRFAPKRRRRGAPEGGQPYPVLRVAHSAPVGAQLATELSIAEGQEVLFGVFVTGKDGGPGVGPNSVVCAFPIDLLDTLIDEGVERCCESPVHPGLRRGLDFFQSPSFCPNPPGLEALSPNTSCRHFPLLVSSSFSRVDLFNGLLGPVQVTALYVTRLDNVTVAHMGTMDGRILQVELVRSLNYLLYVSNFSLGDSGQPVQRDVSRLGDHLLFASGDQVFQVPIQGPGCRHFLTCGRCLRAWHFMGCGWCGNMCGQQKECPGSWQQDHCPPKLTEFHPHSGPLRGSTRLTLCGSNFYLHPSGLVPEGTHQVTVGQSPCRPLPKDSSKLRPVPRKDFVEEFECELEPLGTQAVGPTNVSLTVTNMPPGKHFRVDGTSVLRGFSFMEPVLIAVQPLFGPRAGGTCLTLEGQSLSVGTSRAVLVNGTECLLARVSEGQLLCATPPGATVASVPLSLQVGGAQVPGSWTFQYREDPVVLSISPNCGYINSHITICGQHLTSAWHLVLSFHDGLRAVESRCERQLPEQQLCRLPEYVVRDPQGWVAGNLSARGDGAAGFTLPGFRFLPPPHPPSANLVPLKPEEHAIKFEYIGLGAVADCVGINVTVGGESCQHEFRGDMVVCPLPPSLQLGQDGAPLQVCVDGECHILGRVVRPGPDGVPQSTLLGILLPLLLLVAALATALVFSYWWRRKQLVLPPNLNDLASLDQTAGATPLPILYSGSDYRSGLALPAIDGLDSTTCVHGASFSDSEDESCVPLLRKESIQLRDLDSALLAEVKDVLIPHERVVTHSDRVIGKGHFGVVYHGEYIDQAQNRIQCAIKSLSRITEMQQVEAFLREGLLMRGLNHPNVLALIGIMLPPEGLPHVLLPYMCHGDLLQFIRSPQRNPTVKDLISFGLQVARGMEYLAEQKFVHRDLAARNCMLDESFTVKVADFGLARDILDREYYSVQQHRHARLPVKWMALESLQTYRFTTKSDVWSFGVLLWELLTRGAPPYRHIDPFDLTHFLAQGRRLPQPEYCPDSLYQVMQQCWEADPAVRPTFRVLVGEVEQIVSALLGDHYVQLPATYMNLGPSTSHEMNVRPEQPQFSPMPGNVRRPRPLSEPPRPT

[17] = biological target: YES1 (Homo sapiens, UniProt P07947); assay: NanoBRET CELLinib128; settings: read-out: Tracer bound
Sequence of YES1 (P07947 whole entry): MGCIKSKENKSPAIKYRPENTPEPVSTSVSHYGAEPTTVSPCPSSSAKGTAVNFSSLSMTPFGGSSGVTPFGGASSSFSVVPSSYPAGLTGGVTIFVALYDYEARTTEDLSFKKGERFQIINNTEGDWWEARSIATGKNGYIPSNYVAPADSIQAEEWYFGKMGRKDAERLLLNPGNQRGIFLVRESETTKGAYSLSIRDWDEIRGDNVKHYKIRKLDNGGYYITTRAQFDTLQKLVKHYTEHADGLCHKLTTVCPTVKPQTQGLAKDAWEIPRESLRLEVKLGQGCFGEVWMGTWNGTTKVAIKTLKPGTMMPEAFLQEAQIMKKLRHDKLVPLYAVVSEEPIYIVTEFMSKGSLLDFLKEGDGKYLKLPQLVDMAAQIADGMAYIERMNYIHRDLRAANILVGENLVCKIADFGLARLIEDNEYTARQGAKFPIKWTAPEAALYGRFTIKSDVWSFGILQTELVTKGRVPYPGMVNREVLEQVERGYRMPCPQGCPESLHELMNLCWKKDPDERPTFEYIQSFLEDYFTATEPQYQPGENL

| 0 h - % [1] | 6 h- % [1] | 12 h- % [1] | 24 h- % [1] | 48 h- % [1] | 72 h- % [1] | remaining at 0 h, 10 µM [2] | remaining at 10 min, 10 µM [2] | remaining at 0.5 h, 10 µM [2] | remaining at 1 h, 10 µM [2] | remaining at 2 h, 10 µM [2] | remaining at 6 h, 10 µM [2] | solubility [4] | plasma stability [2] | remaining activity at 1 µM [5] | remaining activity at 1 µM [6] | remaining activity at 1 µM [7] | remaining activity at 1 µM [8] | remaining activity at 1 µM [9] | Structure (SMILES) | viability at 24 h, 50 µM [3] | also measured |
| --- | --- | --- | --- | --- | --- | --- | --- | --- | --- | --- | --- | --- | --- | --- | --- | --- | --- | --- | --- | --- | --- |
| 100% | 101.1% | 101.4% | 103.5% | 104.2% | 104.9% | 100% | 94.9 ± 2.5% | 96.1 ± 1.7% | 95.2 ± 2.8% | 93.2 ± 6.7% | 95.4 ± 4.3% |  |  |  |  |  |  |  | Cc1ncsc1-c1ccc([C@H](C)NC(=O)[C@@H]2C[C@@H](O)CN2C(=O)[C@@H](NC(=O)CCOCCOCCOCCNC(=O)c2cc(Oc3ccc(NC(=O)Nc4cc(C(C)(C)C)on4)cc3)ccn2)C(C)(C)C)cc1 [MA49, reference compound] | 2.9 ± 0.3% |  |
| 100% | 101.0% | 102.4% | 102.1% | 105.7% | 105.2% | 100% | 92.9 ± 0.2% | 94.2 ± 1.2% | 91.9 ± 3.1% | 93.6 ± 3.2% | 88.9 ± 3.2% | 45.8 µM (≈ 18.8 µg/mL) | high plasma stability | 101% | 44.8% | 100% | 27.1% | 33.7% | CNC(=O)c1cc(Oc2ccc(NC(=O)Nc3cc(C(C)(C)C)on3)cc2)ccn1 [MA68, reference compound] | 11.5 ± 2.2% | remaining activity at 1 µM [10]: 38.9%; remaining activity at 1 µM [11]: 27.7%; remaining activity at 1 µM [12]: 108%; remaining activity at 1 µM [13]: 102%; remaining activity at 1 µM [14]: 24%; Tracer bound [15]: 25.9%; remaining activity at 1 µM [16]: 100%; remaining activity at 1 µM [17]: 77.1% |
| 100% | 102.6% | 103.2% | 104.4% | 105.4% | 107.4% | 100% | 94.1 ± 4.7% | 89.5 ± 1.8% | 88.3 ± 0.2% | 86 ± 2% | 86.2 ± 2.4% |  | high plasma stability |  |  |  |  |  | Cc1ncsc1-c1ccc([C@H](C)NC(=O)[C@@H]2C[C@@H](O)CN2C(=O)[C@@H](NC(=O)[C@H]2CC[C@H](C(=O)N3CCC(CCNC(=O)c4cc(Oc5ccc(NC(=O)Nc6cc(C(C)(C)C)on6)cc5)ccn4)CC3)CC2)C(C)(C)C)cc1 [MA190, 4-(4-(3-(5-(tert-Butyl)isoxazol-3-yl)ureido)phenoxy)-N-(2-(1-(trans-4-(((S)-1-((2S,4R)-4-hydroxy-2-(((S)-1-(4-(4-methylthiazol-5-yl)phenyl)ethyl)carbamoyl)pyrrolidin-1-yl)-3,3-dimethyl-1-oxobutan-2-yl)carbamoyl)cyclohexanecarbonyl)piperidin-4-yl)ethyl)picolinamide] | 99.1 ± 3.1% |  |
| 100% | 100.3% | 100.0% | 99.7% | 100.3% | 100.3% | 100% | 95.9 ± 9.4% | 93.3 ± 4.2% | 92.6 ± 5.7% | 94.9 ± 1.8% | 93.3 ± 0.7% | 47.7 µM (≈ 51.9 µg/mL) | high plasma stability | 91.6% | 120% | 93.6% | 108% | 118% | Cc1ncsc1-c1ccc([C@H](C)NC(=O)[C@@H]2C[C@@H](O)CN2C(=O)[C@@H](NC(=O)[C@H]2CC[C@H](C(=O)N3CCN(CCNC(=O)c4cc(Oc5ccc(NC(=O)Nc6cc(C(C)(C)C)on6)cc5)ccn4)CC3)CC2)C(C)(C)C)cc1 [MA191, 4-(4-(3-(5-(tert-Butyl)isoxazol-3-yl)ureido)phenoxy)-N-(2-(4-(trans-4-(((S)-1-((2S,4R)-4-hydroxy-2-(((S)-1-(4-(4-methylthiazol-5-yl)phenyl)ethyl)carbamoyl)pyrrolidin-1-yl)-3,3-dimethyl-1-oxobutan-2-yl)carbamoyl)cyclohexanecarbonyl)piperazin-1-yl)ethyl)picolinamide] | 86.9 ± 5.8% | remaining activity at 1 µM [10]: 120%; remaining activity at 1 µM [11]: 85.1%; remaining activity at 1 µM [12]: 102%; remaining activity at 1 µM [13]: 101%; remaining activity at 1 µM [14]: 96.2%; Tracer bound [15]: 70.3%; remaining activity at 1 µM [16]: 98.5%; remaining activity at 1 µM [17]: 120% |
